Several values for one entry are separate records, joined by “and”; a condition that tells them apart may be missing. Equal entries are not always repeated.

Series [1] is described as follows: Human HepG2 cell viability assay in 384 well format. It is filed as toxicity, cell-based. Set-up: dose 125 nL, time 70.5 hour; concentration not given beside the values. The following applies: HepG2 cells, read-out: Inhibition.
Series [2] can be described thus: Human HepG2 cell viability dose-response assay. It is filed as toxicity, cell-based.

In the case of `C/N=C1/c2cc3cc(OC)ccc3n2CCN1Cc1ccccc1.Cl`, the cytotoxicity at 70.5 h in series [1] worked out at 61.3%. Also, in series [2], the BOTTOM is -4.849 and -8.854; the HILLSLOPE was 2.411 and 1.684; the TOP was 87.09 and 100; the pXC50 was 5.148 and 5.086.

Turning to `O=C(Nc1nccs1)c1csc(NC2CCCC2)n1`, the cytotoxicity at 70.5 h in series [1] is 62%. In series [2], the BOTTOM is -10.16 and -7.056; the HILLSLOPE was 0.9548 and 1.411; the TOP is 100; the pXC50 is 4.822 and 4.869.

With `CCCc1cc(=O)[nH]c(-n2nc(C3CC3)cc2N)n1`, the cytotoxicity at 70.5 h in series [1] is 65.9%. In series [2], this compound registered a BOTTOM of 0, an HILLSLOPE of 0, a TOP of 0 and a pXC50 of less than 4.53.

For the compound `c1ccc(OCC2CC3(CCN(CC4CCOCC4)CC3)CO2)nc1` (stereo not drawn), in series [1], the cytotoxicity at 70.5 h is 62.9%. Moreover, in series [2], the BOTTOM is given as 0, the HILLSLOPE was determined as 0, the TOP was 0 and the pXC50 was less than 4.53.

`CCn1cc(CN(C)S(=O)(=O)c2ccc(Cl)cc2)cn1`: in series [1], the cytotoxicity at 70.5 h stood at 108%. In series [2], this compound came in with a BOTTOM of 0, an HILLSLOPE of 0, a TOP of 0 and a pXC50 of less than 4.53.

Regarding `c1ccc(CCN2CCCC2c2cccc(Nc3nccs3)n2)cc1` (stereo not drawn), in series [1], the cytotoxicity at 70.5 h was determined as 70.3%. Besides, in series [2], the BOTTOM was -11.18 and -9.985; the HILLSLOPE was 1.416 and 1.359; the TOP amounted to 100; the pXC50 is 5.661 and 5.625.

For the compound `Cc1cnc(Nc2cccc(C3CCCN3Cc3cn(C)nc3C)n2)s1` (stereo not drawn), in series [1], the cytotoxicity at 70.5 h is 76%. In series [2], the BOTTOM was -7.108 and -9.894; the HILLSLOPE is 1.821 and 1.15; the TOP was 87.64 and 100; the pXC50 is 5.777 and 5.662.

`Oc1cc(C2CCCN(Cc3cccs3)C2)nc(-c2ccccn2)n1` (stereo not drawn): the cytotoxicity at 70.5 h in series [1] is 60.4%. Moreover, in series [2], the BOTTOM is -7.306 and -6.343; the HILLSLOPE is 1.489 and 1.356; the TOP is listed as 100; the pXC50 was 4.83 and 4.808.

On to `Cn1nccc1CN1CCOC(c2cccc(Nc3ccccn3)n2)C1` (stereo not drawn), for which the cytotoxicity at 70.5 h in series [1] worked out at 84.1%. Further, in series [2], the HILLSLOPE was 6.527 and 3.177; the TOP is 100.3 and 104.2; the pXC50 was 5.026 and 5.036.

Take `Cc1ccccc1CN1CCCC1c1cccc(Nc2nccs2)n1` (stereo not drawn): the cytotoxicity at 70.5 h in series [1] worked out at 70.5%. In addition, in series [2], the BOTTOM was -34.71 and -42.55; the HILLSLOPE is 0.815 and 0.7597; the TOP turned out to be 100; the pXC50 was 6.34 and 6.398.

Take `Oc1cc(C2CCCCN2Cc2cccs2)nc(-c2ccccn2)n1` (stereo not drawn): the cytotoxicity at 70.5 h in series [1] amounted to 64.3%. In series [2], the BOTTOM is -3.23 and -7.213; the HILLSLOPE is 1.278 and 1.267; the TOP is given as 100; the pXC50 was 5.076 and 5.09.

For the compound `CNc1cc(C2CN(Cc3scnc3C)CCO2)nc(C)n1` (stereo not drawn), the cytotoxicity at 70.5 h in series [1] was 98.7%. Further, in series [2], the HILLSLOPE is 1.929 and 1.812; the TOP was 107.3 and 109.8; the pXC50 is 4.988 and 5.003.

`CCc1ncc2c(n1)CN(Cc1ncc(C(C)(C)C)o1)CC2`: the cytotoxicity at 70.5 h in series [1] was 60.9%. Further, in series [2], the BOTTOM is on record as 0, the HILLSLOPE is 0, the TOP came to 0 and the pXC50 is less than 4.53.

Take `CN(CCC(F)(F)F)C(=O)C1CSCN1C(=O)C(C)(C)C` (stereo not drawn): the cytotoxicity at 70.5 h in series [1] is 100%. Further, in series [2], the BOTTOM came to 0, the HILLSLOPE stood at 0, the TOP is recorded as 0 and the pXC50 is listed as less than 4.53.

On to `NC(CC1CCCC1)c1ccc(Oc2ccccc2)cc1` (stereo not drawn), for which, in series [1], the cytotoxicity at 70.5 h amounted to 99%. In addition, in series [2], the BOTTOM was -5.453 and -5.719; the HILLSLOPE was 5.268 and 5.002; the TOP is 102.6 and 103.1; the pXC50 was 5.226 and 5.224.

`O=C(CN1CCc2sccc2C1)Nc1ccnc2ccnn12`: the cytotoxicity at 70.5 h in series [1] worked out at 74.2%. In series [2], the BOTTOM is -24.28 and -16.58; the HILLSLOPE was 0.9799 and 1.026; the TOP is recorded as 100; the pXC50 was 5.87 and 5.888.

As for `CNc1nc(C)cc(NCc2cc(C)cc3c(C)c(C)[nH]c23)n1`, the cytotoxicity at 70.5 h in series [1] is 98.8%. In addition, in series [2], the BOTTOM was -7.457 and -8.772; the HILLSLOPE was 3.23 and 3.681; the TOP was 100 and 99.18; the pXC50 was 5.482 and 5.451.

Take `CC(C)(C)c1nccc(C2(c3ccccc3Cl)CCNCC2)n1`: the cytotoxicity at 70.5 h in series [1] came out at 78.4%. For the same compound, in series [2], the BOTTOM is 9.625 and 4.047; the HILLSLOPE is 4.667 and 5.549; the TOP was 104.8 and 103.4; the pXC50 was 5.031 and 5.028.

Turning to `N#Cc1ccc(NCCNc2ccc(C(F)(F)F)cn2)nc1`, the cytotoxicity at 70.5 h in series [1] was 101%. In series [2], the BOTTOM is -5.895 and -10.21; the HILLSLOPE was 4.246 and 4.413; the TOP is 101.3 and 101.1; the pXC50 is 5.913 and 5.918.

Turning to `CC(C)Cc1ccc(S(=O)(=O)Nc2ccc(=O)n(C)c2)cc1`, the cytotoxicity at 70.5 h in series [1] came to 71.6%. Further, in series [2], the BOTTOM amounted to 0, the HILLSLOPE came to 0, the TOP is 0 and the pXC50 was less than 4.53.

`Cc1nccn1CC1CCCN1S(=O)(=O)Cc1ccccc1` (stereo not drawn): in series [1], the cytotoxicity at 70.5 h was -22.1%.

As to `Fc1cccc(-n2ccc(CN3CCCCC3Cn3cncn3)n2)c1` (stereo not drawn), the cytotoxicity at 70.5 h in series [1] was -13.3%.

Take `CN(Cc1nc(C2CC2)no1)C1CCCN(c2cccnn2)C1` (stereo not drawn): the cytotoxicity at 70.5 h in series [1] was -19.7%.

In the case of `Cc1cnn(CC2CCCN2C(=O)c2cccc(CC#N)c2)c1` (stereo not drawn), the cytotoxicity at 70.5 h in series [1] is -22%.

As to `Cl.Cn1ccnc1N1CCN(C(=O)Cc2ccc(F)cc2)CC1`, in series [1], the cytotoxicity at 70.5 h came out at 75%. In series [2], this compound yielded a BOTTOM of 0, an HILLSLOPE of 0, a TOP of 0 and a pXC50 of less than 4.53.

In the case of `COc1ccc(C)cc1CN1CCC(c2cc3ncccc3cn2)CC1.Cl`, the cytotoxicity at 70.5 h in series [1] is 105%. In series [2], the BOTTOM was -3.004 and -4.306; the HILLSLOPE was 10.96 and 6.205; the TOP is 101.8 and 102.1; the pXC50 is 5.072 and 5.187.

Regarding `Cl.Cl.Clc1cccc(C[C@@H]2NCCC[C@@H]2Nc2ccccc2)c1`, the cytotoxicity at 70.5 h in series [1] turned out to be 104%. Further, in series [2], the BOTTOM is -6.539 and -3.827; the HILLSLOPE was 13.96 and 17.86; the TOP is on record as 101.8; the pXC50 is 5.306 and 5.329.

For `O=C(O)C(F)(F)F.O=C1COC2(CCN(CC3CCC3)CC2)CN1c1cncnc1`, in series [1], the cytotoxicity at 70.5 h was 61.5%. For the same compound, in series [2], the BOTTOM amounted to 0, the HILLSLOPE was found to be 0, the TOP came out at 0 and the pXC50 is recorded as less than 4.53.

For the compound `Cc1c(C)c2c(c(C)c1O)CC[C@](C)(C(=O)O)O2` [(R)-TROLOX], the cytotoxicity at 70.5 h in series [1] was -0.808%.

Values taken from ChEMBL document CHEMBL3507680, “University of Dundee, Gates Library screen for HepG2 cell viability”.
